Results from publication PMC8934569 (Cancer chemotherapy and pharmacology, 2021).

What was measured:
[1] = Drug-related adverse events graded by NCI CTCAE version 4.0; format: in vivo, human
[2] = test system: metastatic malignancy; assay: Tumor response by RECIST version 1.1; format: in vivo, human
[3] = Veliparib plasma pharmacokinetics; format: in vivo, human
[4] = test system: γH2AX in circulating tumor cells (CTCs); assay: Total CTCs and γH2AX-positive CTCs; format: in vivo, human; conditions: veliparib and AC
[5] = test system: γH2AX in tumor; assay: γH2AX nuclear area positive score; format: in vivo, human; conditions: veliparib and AC, paired biopsy, baseline <5%
[6] = test system: MX-1 BRCA1 deficient breast cancer model; conditions: cyclophosphamide 12.5 mg/kg/day on days 20, 14, and 27 and veliparib 25 mg/kg/day; cited from earlier work
[7] = test system: recombinant cytochrome P450s; conditions: cited from earlier work
[8] = test system: metastatic breast cancer; conditions: veliparib with oral cyclophosphamide; cited from earlier work
[9] = Phase I dose escalation
[10] = Group 1 N=31: veliparib Days 1-4 + cyclophosphamide Day 3
[11] = Group 2 N=22: veliparib Days 1-4 + AC Day 3
[12] = Groups 3 and 4 N=27: veliparib Days 1-7 or 1-14 + AC Day 1
[13] = Group 1 N=31: veliparib Days 1-4 + cyclophosphamide Day 3, all tumor types
[14] = Group 2 N=22: veliparib Days 1-4 + AC Day 3, all tumor types
[15] = Group 3 N=14: veliparib 100 mg every 12 h Days 1-7 + AC Day 1
[16] = Group 4 N=13: veliparib 100 mg every 12 h Days 1-14 + AC Day 1

## C[C@]1(c2nc3c(C(N)=O)cccc3[nH]2)CCCN1 [veliparib, 2-[(R)-2-methylpyrrolidin-2-yl]-1H-benzimidazole-4-carboxamide]
[1]; [10]
  Anemia, All Grades: 8 (26) n (%)
  Anemia, Gr 3: 2 (6) n (%)
  Anemia, Gr 4: 0 (0) n (%)
  Anorexia, All Grades: 0 (0) n (%)
  Anorexia, Gr 3: 0 (0) n (%)
  Anorexia, Gr 4: 0 (0) n (%)
  Dehydration, All Grades: 0 (0) n (%)
  Dehydration, Gr 3: 0 (0) n (%)
  Dehydration, Gr 4: 0 (0) n (%)
  Fatigue, All Grades: 12 (39) n (%)
  Fatigue, Gr 3: 1 (3) n (%)
  Fatigue, Gr 4: 0 (0) n (%)
  Febrile neutropenia, All Grades: 1 (3) n (%)
  Febrile neutropenia, Gr 3: 1 (3) n (%)
  Febrile neutropenia, Gr 4: 0 (0) n (%)
  Hyponatremia, All Grades: 0 (0) n (%)
  Hyponatremia, Gr 3: 0 (0) n (%)
  Hyponatremia, Gr 4: 0 (0) n (%)
  Hypophosphatemia, All Grades: 1 (3) n (%)
  Hypophosphatemia, Gr 3: 1 (3) n (%)
  Hypophosphatemia, Gr 4: 0 (0) n (%)
  Hypotension, All Grades: 1 (3) n (%)
  Hypotension, Gr 3: 1 (3) n (%)
  Hypotension, Gr 4: 0 (0) n (%)
  Lymphocyte count decreased, All Grades: 8 (26) n (%)
  Lymphocyte count decreased, Gr 3: 4 (13) n (%)
  Lymphocyte count decreased, Gr 4: 2 (6) n (%)
  Nausea, All Grades: 5 (16) n (%)
  Nausea, Gr 3: 0 (0) n (%)
  Nausea, Gr 4: 0 (0) n (%)
  Neutrophil count decreased, All Grades: 11 (35) n (%)
  Neutrophil count decreased, Gr 3: 4 (13) n (%)
  Neutrophil count decreased, Gr 4: 3 (10) n (%)
  Platelet count decreased, All Grades: 5 (16) n (%)
  Platelet count decreased, Gr 3: 1 (3) n (%)
  Platelet count decreased, Gr 4: 1 (3) n (%)
  Sepsis, All Grades: 0 (0) n (%)
  Sepsis, Gr 3: 0 (0) n (%)
  Sepsis, Gr 4: 0 (0) n (%)
  Vomiting, All Grades: 5 (16) n (%)
  Vomiting, Gr 3: 0 (0) n (%)
  Vomiting, Gr 4: 0 (0) n (%)
  White blood cell decreased, All Grades: 9 (29) n (%)
  White blood cell decreased, Gr 3: 6 (19) n (%)
  White blood cell decreased, Gr 4: 1 (3) n (%)
[1]; [11]
  Anemia, All Grades: 16 (73) n (%)
  Anemia, Gr 3: 4 (18) n (%)
  Anemia, Gr 4: 0 (0) n (%)
  Anorexia, All Grades: 5 (23) n (%)
  Anorexia, Gr 3: 0 (0) n (%)
  Anorexia, Gr 4: 0 (0) n (%)
  Dehydration, All Grades: 1 (5) n (%)
  Dehydration, Gr 3: 1 (5) n (%)
  Dehydration, Gr 4: 0 (0) n (%)
  Fatigue, All Grades: 16 (73) n (%)
  Fatigue, Gr 3: 0 (0) n (%)
  Fatigue, Gr 4: 0 (0) n (%)
  Febrile neutropenia, All Grades: 3 (14) n (%)
  Febrile neutropenia, Gr 3: 2 (9) n (%)
  Febrile neutropenia, Gr 4: 2 (9) n (%)
  Hyponatremia, All Grades: 1 (5) n (%)
  Hyponatremia, Gr 3: 1 (5) n (%)
  Hyponatremia, Gr 4: 0 (0) n (%)
  Hypophosphatemia, All Grades: 0 (0) n (%)
  Hypophosphatemia, Gr 3: 0 (0) n (%)
  Hypophosphatemia, Gr 4: 0 (0) n (%)
  Hypotension, All Grades: 0 (0) n (%)
  Hypotension, Gr 3: 0 (0) n (%)
  Hypotension, Gr 4: 0 (0) n (%)
  Lymphocyte count decreased, All Grades: 13 (59) n (%)
  Lymphocyte count decreased, Gr 3: 10 (45) n (%)
  Lymphocyte count decreased, Gr 4: 2 (9) n (%)
  Nausea, All Grades: 10 (45) n (%)
  Nausea, Gr 3: 0 (0) n (%)
  Nausea, Gr 4: 0 (0) n (%)
  Neutrophil count decreased, All Grades: 19 (86) n (%)
  Neutrophil count decreased, Gr 3: 10 (45) n (%)
  Neutrophil count decreased, Gr 4: 13 (59) n (%)
  Platelet count decreased, All Grades: 14 (64) n (%)
  Platelet count decreased, Gr 3: 4 (18) n (%)
  Platelet count decreased, Gr 4: 2 (9) n (%)
  Sepsis, All Grades: 1 (5) n (%)
  Sepsis, Gr 3: 0 (0) n (%)
  Sepsis, Gr 4: 1 (5) n (%)
  Vomiting, All Grades: 3 (14) n (%)
  Vomiting, Gr 3: 0 (0) n (%)
  Vomiting, Gr 4: 0 (0) n (%)
  White blood cell decreased, All Grades: 21 (95) n (%)
  White blood cell decreased, Gr 3: 11 (50) n (%)
  White blood cell decreased, Gr 4: 14 (64) n (%)
[1]; [12]
  Anemia, All Grades: 18 (67) n (%)
  Anemia, Gr 3: 11 (41) n (%)
  Anemia, Gr 4: 1 (4) n (%)
  Anorexia, All Grades: 0 (0) n (%)
  Anorexia, Gr 3: 0 (0) n (%)
  Anorexia, Gr 4: 0 (0) n (%)
  Dehydration, All Grades: 0 (0) n (%)
  Dehydration, Gr 3: 0 (0) n (%)
  Dehydration, Gr 4: 0 (0) n (%)
  Fatigue, All Grades: 4 (15) n (%)
  Fatigue, Gr 3: 0 (0) n (%)
  Fatigue, Gr 4: 0 (0) n (%)
  Febrile neutropenia, All Grades: 3 (11) n (%)
  Febrile neutropenia, Gr 3: 3 (11) n (%)
  Febrile neutropenia, Gr 4: 0 (0) n (%)
  Hyponatremia, All Grades: 0 (0) n (%)
  Hyponatremia, Gr 3: 0 (0) n (%)
  Hyponatremia, Gr 4: 0 (0) n (%)
  Hypophosphatemia, All Grades: 0 (0) n (%)
  Hypophosphatemia, Gr 3: 0 (0) n (%)
  Hypophosphatemia, Gr 4: 0 (0) n (%)
  Hypotension, All Grades: 0 (0) n (%)
  Hypotension, Gr 3: 0 (0) n (%)
  Hypotension, Gr 4: 0 (0) n (%)
  Lymphocyte count decreased, All Grades: 25 (93) n (%)
  Lymphocyte count decreased, Gr 3: 23 (85) n (%)
  Nausea, All Grades: 6 (22) n (%)
  Nausea, Gr 3: 0 (0) n (%)
  Nausea, Gr 4: 0 (0) n (%)
  Neutrophil count decreased, All Grades: 21 (78) n (%)
  Neutrophil count decreased, Gr 4: 19 (70) n (%)
  Platelet count decreased, All Grades: 19 (70) n (%)
  Platelet count decreased, Gr 3: 7 (26) n (%)
  Platelet count decreased, Gr 4: 6 (22) n (%)
  Sepsis, All Grades: 0 (0) n (%)
  Sepsis, Gr 3: 0 (0) n (%)
  Sepsis, Gr 4: 0 (0) n (%)
  Vomiting, All Grades: 4 (15) n (%)
  Vomiting, Gr 3: 0 (0) n (%)
  Vomiting, Gr 4: 0 (0) n (%)
  White blood cell decreased, All Grades: 24 (89) n (%)
  White blood cell decreased, Gr 3: 21 (78) n (%)
  White blood cell decreased, Gr 4: 14 (52) n (%)
[1]; across the whole trial (n=22 of 80)
  Patients given growth factor support after cycle 1: 28%
[1]; overall, 80 patients enrolled
  Patients requiring a dose reduction of veliparib: 23 patients
[2]; Group 1 (veliparib + cyclophosphamide)
  Overall clinical benefit rate (CBR): 13%
[2]; [13]
  Complete response (best response achieved): 0 (0) n (%)
  Stable disease ≥3 months (best response achieved): 3 (10) n (%)
[2]; [14]
  Complete response (best response achieved): 0 (0) n (%)
  Partial response (best response achieved): 4 (18) n (%)
  Stable disease ≥3 months (best response achieved): 5 (23) n (%)
[2]; [15]
  Complete response (best response achieved): 0 (0) n (%)
  Partial response (best response achieved): 2 (14) n (%)
  Stable disease ≥3 months (best response achieved): 4 (29) n (%)
[2]; [16]
  Complete response (best response achieved): 0 (0) n (%)
  Partial response (best response achieved): 5 (38) n (%)
  Stable disease ≥3 months (best response achieved): 1 (8) n (%)
[2]; V and AC treated groups (11/49)
  Objective response: 22%
[2]; all groups (25/80)
  Overall clinical benefit rate: 31%
[2]; among the 59 metastatic breast cancer patients treated
  Patients with a BRCA1/2 mutation noted to have PRs: 5 patients
[3]; Groups 1 and 2
  AUC0-7 on C1D3 (with combination therapy) compared to C1D1 (alone): significantly higher
  Cmax on C1D3 (with combination therapy) compared to C1D1 (alone): comparable
[3]; veliparib administered alone, 50 to 200 mg dose range, C1D1
  Dose proportionality of Cmax and AUC0-7: approximately dose-proportional increases
[4]; groups 3 and 4 combined, p =0.0006
  Change in percentage of γH2AX-positive CTCs from Day 1 to Day 14: significant increase
[4]; groups 3 and 4 combined, p =0.0007
  Change in CTCs from Day 1 to Day 7: significant decrease
[4]; groups 3 and 4 combined, p =0.0009
  Change in CTCs from Day 1 to Day 14: significant decrease
[4]; groups 3 and 4 combined, p =0.016
  Change in percentage of γH2AX-positive CTCs from Day 1 to Day 7: significant increase
[4]; groups 3 and 4, cycle 1
  Patients in whom γH2AX-positive CTCs ≥ 50% persisted to day 14: 10 patients
[5]; patient with partial response
  γH2AX nuclear area positive score (%NAP) after treatment: 3.23%
[5]; patient with progressive disease
  γH2AX nuclear area positive score (%NAP) after treatment: 10.96%
[5]; patient with stable disease
  γH2AX nuclear area positive score (%NAP) after treatment: 5.2%
[5]; response could not be assessed
  γH2AX nuclear area positive score (%NAP) after treatment: 4.5%
[6]
  Tumor effect of the combination: tumor regression
[7]; known when the study was developed, no reference given
  P450 involvement in incubations with recombinant cytochrome P450s: potential involvement of CYP1A1, 2D6, 2C19, and 3A4
[7]; only partially by CYP1A2, 2C19 and 3A4
  Metabolizing enzymes: primarily metabolized by CYP2D6
[8]
  Clinical benefit: 19.2%
[9]; Group 2: Days 1-4 with AC 60/600 mg/m^2 Day 3 every 21 days
  MTD or recommended phase II dose of veliparib with AC: 100 mg every 12 h
[9]; Group 3 Level 1b: veliparib 100 mg every 12 h Days 1-7 + cyclophosphamide 600 mg/m^2 + doxorubicin 60 mg/m^2 Day 1, n=14
  No. of Pts with DLTS: 0
[9]; Group 4 Level 1b: veliparib 100 mg every 12 h Days 1-14 + cyclophosphamide 600 mg/m^2 + doxorubicin 60 mg/m^2 Day 1, n=13
  No. of Pts with DLTS: 0
